According to patent US20210352905A1, “COMPOSITIONS AND METHODS TO DISINFECT, TREAT AND PREVENT MICROBIAL INFECTIONS” (WIAB WATER INNOVATION AB, priority 2020, published 2021):

How the values were obtained:
pre-formed biofilm = details: Halstead et al, PLOS ONE (2015); cited from earlier work
S. aureus biofilms = details: 1% acetic acid alone, FIG. 2
human rhinovirus (HRV) = details: low concentration hypochlorous acid nasal irrigation solution, in vitro, nasal epithelial cells; cited from earlier work
[1] = cited from earlier work
avian influenza virus = details: similar formulations, in vitro; cited from earlier work

CC(=O)O [acetic acid]
concentrations of acetic acid that eradicated a pre-formed biofilm (pre-formed biofilm): 0.10% to 2.5
effect on the biofilm (S. aureus biofilms): only minor effect

OCl [hypochlorous acid]
virus-killing effect (human rhinovirus (HRV)): significant virus-killing effect
pKa [1]: about 7
effects against avian influenza virus (avian influenza virus): good effects
